Reference: article PMC12620416 (Molecular Plant Pathology, 2025)
Converted amounts (≈) assume the structure as drawn.

Each molecule was assayed on Xanthomonas oryzae pv. oryzae (Xoo) PXO99A (assay: microbe, parasite or virus in culture). Settings: read-out: EC50 (mg/L).

Structure (SMILES) | EC50 [mg/L]
C=C[C@]1(C)C[C@@H](OC(=O)CSc2ncc(OC)c(OS(=O)(=O)c3c(F)cccc3F)n2)[C@]2(C)[C@H](C)CC[C@]3(CCC(=O)[C@H]32)[C@@H](C)[C@@H]1O [J4] | 0.34 ± 0.04 (≈ 0.489 µM)
C=C[C@]1(C)C[C@@H](OC(=O)CSc2ncc(OC)c(OS(=O)(=O)c3ccc(CC)cc3)n2)[C@]2(C)[C@H](C)CC[C@]3(CCC(=O)[C@H]32)[C@@H](C)[C@@H]1O [J23] | 0.58 ± 0.07 (≈ 0.844 µM)
C=C[C@]1(C)C[C@@H](OC(=O)CSc2ncc(OC)c(OS(=O)(=O)c3ccc(Cl)cc3Br)n2)[C@]2(C)[C@H](C)CC[C@]3(CCC(=O)[C@H]32)[C@@H](C)[C@@H]1O [J14] | 0.3 ± 0.02 (≈ 0.389 µM)
C=C[C@]1(C)C[C@@H](OC(=O)CSc2ncc(OC)c(OS(=O)(=O)c3ccc(OC(F)(F)F)cc3)n2)[C@]2(C)[C@H](C)CC[C@]3(CCC(=O)[C@H]32)[C@@H](C)[C@@H]1O [J24] | 0.26 ± 0.05 (≈ 0.35 µM)
C=C[C@]1(C)C[C@@H](OC(=O)CSc2ncc(OC)c(OS(=O)(=O)c3cc(Br)c(F)cc3F)n2)[C@]2(C)[C@H](C)CC[C@]3(CCC(=O)[C@H]32)[C@@H](C)[C@@H]1O [J13] | 0.22 ± 0.05 (≈ 0.284 µM)
C=C[C@]1(C)C[C@@H](OC(=O)CSc2ncc(OC)c(OS(=O)(=O)c3c(C)c(C)c(C)c(C)c3C)n2)[C@]2(C)[C@H](C)CC[C@]3(CCC(=O)[C@H]32)[C@@H](C)[C@@H]1O [J6] | 0.33 ± 0.09 (≈ 0.453 µM)
C=C[C@]1(C)C[C@@H](OC(=O)CSc2ncc(OC)c(OS(=O)(=O)c3ccc(Cl)cc3)n2)[C@]2(C)[C@H](C)CC[C@]3(CCC(=O)[C@H]32)[C@@H](C)[C@@H]1O [J22] | 0.34 ± 0.17 (≈ 0.49 µM)
C=C[C@]1(C)C[C@@H](OC(=O)CSc2ncc(OC)c(OS(=O)(=O)c3cccc(Cl)c3F)n2)[C@]2(C)[C@H](C)CC[C@]3(CCC(=O)[C@H]32)[C@@H](C)[C@@H]1O [J12] | 0.26 ± 0.12 (≈ 0.366 µM)
C=C[C@]1(C)C[C@@H](OC(=O)CSc2ncc(OC)c(OS(=O)(=O)c3ccc(F)c(F)c3F)n2)[C@]2(C)[C@H](C)CC[C@]3(CCC(=O)[C@H]32)[C@@H](C)[C@@H]1O [J17] | 0.22 ± 0.09 (≈ 0.309 µM)
C=C[C@]1(C)C[C@@H](OC(=O)CSc2ncc(OC)c(OS(=O)(=O)C3CC3)n2)[C@]2(C)[C@H](C)CC[C@]3(CCC(=O)[C@H]32)[C@@H](C)[C@@H]1O [J15] | 0.37 ± 0.09 (≈ 0.594 µM)
C=C[C@]1(C)C[C@@H](OC(=O)CSc2ncc(OC)c(OS(=O)(=O)c3ccc(Br)cc3OC(F)(F)F)n2)[C@]2(C)[C@H](C)CC[C@]3(CCC(=O)[C@H]32)[C@@H](C)[C@@H]1O [J11] | 0.39 ± 0.27 (≈ 0.475 µM)
C=C[C@]1(C)C[C@@H](OC(=O)CSc2ncc(OC)c(OS(=O)(=O)c3cccc(F)c3)n2)[C@]2(C)[C@H](C)CC[C@]3(CCC(=O)[C@H]32)[C@@H](C)[C@@H]1O [J10] | 0.2 ± 0.13 (≈ 0.295 µM)
C=C[C@]1(C)C[C@@H](OC(=O)CSc2ncc(OC)c(OS(=O)(=O)c3ccc(C)cc3)n2)[C@]2(C)[C@H](C)CC[C@]3(CCC(=O)[C@H]32)[C@@H](C)[C@@H]1O [J2] | 0.26 ± 0.17 (≈ 0.386 µM)
C=C[C@]1(C)C[C@@H](OC(=O)CSc2ncc(OC)c(OS(=O)(=O)c3ccc(F)cc3)n2)[C@]2(C)[C@H](C)CC[C@]3(CCC(=O)[C@H]32)[C@@H](C)[C@@H]1O [J16] | 0.26 ± 0.03 (≈ 0.384 µM)
C=C[C@]1(C)C[C@@H](OC(=O)CSc2ncc(OC)c(OS(=O)(=O)c3c(C)c(C)cc(C)c3C)n2)[C@]2(C)[C@H](C)CC[C@]3(CCC(=O)[C@H]32)[C@@H](C)[C@@H]1O [J20] | 0.35 ± 0.06 (≈ 0.49 µM)
C=C[C@]1(C)C[C@@H](OC(=O)CSc2ncc(OC)c(OS(=O)(=O)c3cccc(Br)c3)n2)[C@]2(C)[C@H](C)CC[C@]3(CCC(=O)[C@H]32)[C@@H](C)[C@@H]1O [J7] | 0.27 ± 0.11 (≈ 0.366 µM)
C=C[C@]1(C)C[C@@H](OC(=O)CSc2ncc(OC)c(OS(=O)(=O)c3ccc(C(F)(F)F)cc3)n2)[C@]2(C)[C@H](C)CC[C@]3(CCC(=O)[C@H]32)[C@@H](C)[C@@H]1O [J3] | 0.81 ± 0.08 (≈ 1.11 µM)
C=C[C@]1(C)C[C@@H](OC(=O)CSc2ncc(OC)c(OS(=O)(=O)c3c(F)c(F)c(F)c(F)c3F)n2)[C@]2(C)[C@H](C)CC[C@]3(CCC(=O)[C@H]32)[C@@H](C)[C@@H]1O [J5] | 0.77 ± 0.56 (≈ 1.03 µM)
C=C[C@]1(C)C[C@@H](OC(=O)CSc2ncc(OC)c(OS(=O)(=O)CCCC)n2)[C@]2(C)[C@H](C)CC[C@]3(CCC(=O)[C@H]32)[C@@H](C)[C@@H]1O [J21] | 2.79 ± 0.39 (≈ 4.37 µM)
C=C[C@]1(C)C[C@@H](OC(=O)CSc2ncc(OC)c(O)n2)[C@]2(C)[C@H](C)CC[C@]3(CCC(=O)[C@H]32)[C@@H](C)[C@@H]1O [J9] | 0.12 ± 0.02 (≈ 0.231 µM)
C=C[C@]1(C)C[C@@H](OC(=O)CSc2ncc(OC)c(OS(=O)(=O)c3ccc(C#N)cc3)n2)[C@]2(C)[C@H](C)CC[C@]3(CCC(=O)[C@H]32)[C@@H](C)[C@@H]1O [J18] | 0.29 ± 0.09 (≈ 0.424 µM)
C=C[C@]1(C)C[C@@H](OC(=O)CSc2ncc(OC)c(OS(=O)(=O)CC)n2)[C@]2(C)[C@H](C)CC[C@]3(CCC(=O)[C@H]32)[C@@H](C)[C@@H]1O [J1] | 0.41 ± 0.15 (≈ 0.671 µM)
C=C[C@]1(C)C[C@@H](OC(=O)CSc2ncc(OC)c(OS(=O)(=O)c3c(C)cc(C)cc3C)n2)[C@]2(C)[C@H](C)CC[C@]3(CCC(=O)[C@H]32)[C@@H](C)[C@@H]1O [J19] | 0.16 ± 0.06 (≈ 0.228 µM)

What follows are molecules tested against T1, ISXoo15 transposase (Xanthomonas oryzae, UniProt A0A0K0GFE1) (assay: biochemical). Settings: not given.
T1 construct: gene PXO_03433
T1 sequence (A0A0K0GFE1 1-315): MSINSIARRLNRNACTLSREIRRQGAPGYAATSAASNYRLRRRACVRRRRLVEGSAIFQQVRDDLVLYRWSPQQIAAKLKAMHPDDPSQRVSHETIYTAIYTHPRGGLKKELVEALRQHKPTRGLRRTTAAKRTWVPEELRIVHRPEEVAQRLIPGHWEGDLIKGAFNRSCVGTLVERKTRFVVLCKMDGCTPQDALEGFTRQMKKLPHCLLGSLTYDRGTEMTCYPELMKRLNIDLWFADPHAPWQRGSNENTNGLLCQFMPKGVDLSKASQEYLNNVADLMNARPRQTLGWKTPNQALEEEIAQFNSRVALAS

Structure (SMILES) | Kd [nM]
C=C[C@]1(C)C[C@@H](OC(=O)CSc2ncc(OC)c(O)n2)[C@]2(C)[C@H](C)CC[C@]3(CCC(=O)[C@H]32)[C@@H](C)[C@@H]1O [J9] | 187
